IC50, Papp and EC50 data for 23 compounds are collected here from US10294229B2, “Heteroaryl substituted aminopyridine compounds” (BRISTOL-MYERS SQUIBB COMPANY, priority 2015, dated 2019).

The target in one data set is IRAK4 (Homo sapiens (Human), UniProt Q9NWZ3). The data set can be described thus: IRAK4 Inhibition Assay. It is filed as biochemical. The conditions noted are these: ATP 500 μM; IRAK4 0.6 nM. Summed up: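 Enzyme 0.6 nM, ATP 500 μM, FL-peptide 1.5 μM, DMSO 1.6%; HEPES pH 7.2/MgCl2/Brij 35/DTT buffer. RT, 60 min, EDTA stop. Mobility-shift product/substrate ratio; % inhib vs no-enzyme and vehicle controls.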
IRAK4, sequence (Q9NWZ3 whole entry, species assumed): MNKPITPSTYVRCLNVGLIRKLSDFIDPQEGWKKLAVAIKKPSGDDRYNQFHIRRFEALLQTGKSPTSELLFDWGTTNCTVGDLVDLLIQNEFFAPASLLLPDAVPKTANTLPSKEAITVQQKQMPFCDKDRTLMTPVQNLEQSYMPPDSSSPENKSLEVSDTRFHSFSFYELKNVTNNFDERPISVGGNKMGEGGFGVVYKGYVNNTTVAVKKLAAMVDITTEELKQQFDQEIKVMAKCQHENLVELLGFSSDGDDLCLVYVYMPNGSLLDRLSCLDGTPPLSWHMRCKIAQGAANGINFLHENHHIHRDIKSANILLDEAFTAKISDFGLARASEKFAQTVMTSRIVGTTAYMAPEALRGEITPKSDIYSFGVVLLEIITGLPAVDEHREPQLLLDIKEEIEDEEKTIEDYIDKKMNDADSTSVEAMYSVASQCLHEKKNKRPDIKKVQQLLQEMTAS

Data set [1] in a line: Caco-2 Permeability Assay. It is filed as in vitro ADME. The settings on record: human, Caco-2, test compound 3 μM. Put shortly:
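Bidirectional permeability measured over 2 h at 37° C, compound dosed at 3 μM in the donor compartment (apical for absorptive, basolateral for secretive) with plain buffer as receiver.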

Data set [2] relates to Human whole blood stimulated with a TLR2 agonist (lipoteichoic acid), IL-6 levels. The data set can be described thus: IRAK4 Whole Blood Assay. It is filed as cell-based. The settings on record: Homo sapiens, lipoteichoic acid 10 μg/mL. Summed up:
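ACD-A-anticoagulated human whole blood was preincubated with compounds for 60 min at 37 °C under 5% CO2. It was then stimulated with 10 μg/mL lipoteichoic acid (final) in RPMI for 5 h. IL-6 in plasma supernatants was measured by flow cytometry bead assay.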

Some results are limits rather than exact numbers.

As for `CCn1cc(-c2cnc(-n3ncc4cc(C#N)cnc43)cc2NC(C)C)nn1` [Example 37, 1-(5-(1-ethyl-1H-1,2,3-triazol-4-yl)-4-(isopropylamino)pyridin-2-yl)-1H-pyrazolo[3,4-b]pyridine-5-carbonitrile], the IC50 at IRAK4 is 5 nM. Besides, in data set [1], the Papp at 2 h, 3 µM was determined as 33.9 ×10⁻⁶ cm/s. In addition, the midpoint of the response in data set [2], the EC50, lay at 160 nM.

Turning to `CC(C)Nc1cc(-n2ncc3cc(C#N)cnc32)ncc1-c1cn(CCC(F)(F)F)nn1` [Example 41, 1-(4-(isopropylamino)-5-(1-(3,3,3-trifluoropropyl)-1H-1,2,3-triazol-4-yl)pyridin-2-yl)-1H-pyrazolo[3,4-b]pyridine-5-carbonitrile], the IC50 at IRAK4 stood at 4 nM. This compound also displayed a Papp at 2 h, 3 µM in data set [1] of 27.8 ×10⁻⁶ cm/s. For the same compound, it took 320 nM to reach a half-maximal effect in data set [2] (EC50).

With `CC(C)Nc1cc(-n2ncc3cc(C#N)cnc32)ncc1-c1cn(CCCCF)nn1` [Example 48, 1-(5-(1-(4-fluorobutyl)-1H-1,2,3-triazol-4-yl)-4-(isopropylamino)pyridin-2-yl)-1H-pyrazolo[3,4-b]pyridine-5-carbonitrile], the IC50 at IRAK4 amounted to 4 nM. The compound also yielded a Papp at 2 h, 3 µM in data set [1] of 30 ×10⁻⁶ cm/s. Besides, in data set [2], a half-maximal effect (EC50) was put at 920 nM.

As to `CCCn1cc(-c2cnc(-n3ncc4cc(C#N)cnc43)cc2NC2CCOCC2)nn1` [Example 49, 1-(5-(1-propyl-1H-1,2,3-triazol-4-yl)-4-((tetrahydro-2H-pyran-4-yl)amino)pyridin-2-yl)-1H-pyrazolo[3,4-b]pyridine-5-carbonitrile], the IC50 on IRAK4 turned out to be 4 nM. The compound further displayed a Papp at 2 h, 3 µM in data set [1] of 28.8 ×10⁻⁶ cm/s. Moreover, a half-maximal response in data set [2] (EC50) required 580 nM.

As to `CCCn1cc(-c2cnc(-n3ncc4cc(C#N)cnc43)cc2N[C@@H](C)CO)nn1` [Example 52, (S)-1-(4-((1-hydroxypropan-2-yl)amino)-5-(1-propyl-1H-1,2,3-triazol-4-yl)pyridin-2-yl)-1H-pyrazolo[3,4-b]pyridine-5-carbonitrile], the IC50 on IRAK4 was found to be 3 nM. The same compound gave a Papp at 2 h, 3 µM in data set [1] of 3.4 ×10⁻⁶ cm/s. Moreover, the EC50 in data set [2] was 430 nM.

`CCCn1cc(-c2cnc(-n3cnc4cc(C#N)cnc43)cc2N[C@@H](C)CO)nn1` [Example 53, (S)-3-(4-((1-hydroxypropan-2-yl)amino)-5-(1-propyl-1H-1,2,3-triazol-4-yl)pyridin-2-yl)-3H-imidazo [4,5-b]pyridine-6-carbonitrile]: on IRAK4, the IC50 is 2 nM. In data set [1], the Papp at 2 h, 3 µM came out at 26.7 ×10⁻⁶ cm/s. Moreover, a half-maximal response in data set [2] (EC50) required 100 nM.

Turning to `CCCn1cc(-c2cnc(-n3ncc4cc(C#N)cnc43)cc2NCC)nn1` [Example 54, 1-(4-(ethylamino)-5-(1-propyl-1H-1,2,3-triazol-4-yl)pyridin-2-yl)-1H-pyrazolo[3,4-b]pyridine-5-carbonitrile], the IC50 on IRAK4 worked out at 9 nM. In data set [1], this compound came in with a Papp at 2 h, 3 µM of 40.8 ×10⁻⁶ cm/s. The same compound had an EC50 in data set [2] of 1180 nM.

Consider `CC(C)Nc1cc(-n2ncc3cc(C#N)cnc32)ncc1-c1cn(CCc2ccccc2)nn1` [Example 56, 1-(4-(isopropylamino)-5-(1-phenethyl-1H-1,2,3-triazol-4-yl)pyridin-2-yl)-1H-pyrazolo [3,4-b]pyridine-5-carbonitrile], for which, on IRAK4, the IC50 stood at 3 nM. In addition, the Papp at 2 h, 3 µM in data set [1] amounted to 7.2 ×10⁻⁶ cm/s. This compound gave an EC50 in data set [2] of 180 nM.

With `CCCn1cc(-c2cnc(-n3ncc4cc(C#N)cnc43)cc2Nc2cnn(CC(F)F)c2)nn1` [Example 60, 1-(4-((1-(2,2-difluoroethyl)-1H-pyrazol-4-yl)amino)-5-(1-propyl-1H-1,2,3-triazol-4-yl)pyridin-2-yl)-1H-pyrazolo[3,4-b]pyridine-5-carbonitrile], the IC50 at IRAK4 was 2 nM. This compound also returned a Papp at 2 h, 3 µM in data set [1] of 11.9 ×10⁻⁶ cm/s. For the same compound, in data set [2], the EC50 was 250 nM.

For `CCCn1cc(-c2cnc(-n3cnc4cnc(N)nc43)cc2NC(C)C)nn1` [Example 62, 9-(4-(isopropylamino)-5-(1-propyl-1H-1,2,3-triazol-4-yl)pyridin-2-yl)-9H-purin-2-amine], the IC50 on IRAK4 came out at 4 nM. The Papp at 2 h, 3 µM in data set [1] was 32.1 ×10⁻⁶ cm/s. Also, the EC50 in data set [2] came to 140 nM.

`CC(C)Nc1cc(-n2ncc3cc(C#N)cnc32)ncc1-c1cn(CC(C)(C)O)nn1` [Example 63, 1-(5-(1-(2-hydroxy-2-methylpropyl)-1H-1,2,3-triazol-4-yl)-4-(isopropylamino)pyridin-2-yl)-1H-pyrazolo[3,4-b]pyridine-5-carbonitrile]: the IC50 on IRAK4 turned out to be 14 nM. The apparent permeability coefficient (Papp) at 2 h, 3 µM in data set [1] amounted to 7.8 ×10⁻⁶ cm/s. In addition, a half-maximal effect in data set [2] (EC50) was put at 900 nM.

On to `CC(C)Nc1cc(-n2ncc3cc(C#N)cnc32)ncc1-c1cn(C[C@H](O)c2ccccc2)nn1` [Example 85, (R)-1-(5-(1-(2-hydroxy-2-phenylethyl)-1H-1,2,3-triazol-4-yl)-4-(isopropylamino)pyridin-2-yl)-1H-pyrazolo[3,4-b]pyridine-5-carbonitrile], for which the IC50 at IRAK4 worked out at 5 nM. In data set [1], this compound registered a Papp at 2 h, 3 µM of 6.9 ×10⁻⁶ cm/s. In data set [2], this compound registered an EC50 of 310 nM.

On to `CC(C)Nc1cc(-n2ncc3cc(C#N)c(N)nc32)ncc1-c1cn(CC(C)(C)O)nn1` [Example 97, 6-amino-1-(5-(1-(2-hydroxy-2-methylpropyl)-1H-1,2,3-triazol-4-yl)-4-(isopropylamino)pyridin-2-yl)-1H-pyrazolo[3,4-b]pyridine-5-carbonitrile], for which the IC50 at IRAK4 was found to be 8 nM. Also, the Papp at 2 h, 3 µM in data set [1] was under 1.5 ×10⁻⁶ cm/s. Further, the EC50 in data set [2] came out at 1440 nM.

Take `Cc1n[nH]c(C)c1CCn1cc(-c2cnc(-n3ncc4cc(C#N)cnc43)cc2NC(C)C)nn1` [Example 102, 1-(5-(1-(2-(3,5-dimethyl-1H-pyrazol-4-yl)ethyl)-1H-1,2,3-triazol-4-yl)-4-(isopropylamino)pyridin-2-yl)-1H-pyrazolo[3,4-b]pyridine-5-carbonitrile]: at IRAK4, the IC50 came out at 4 nM. Also, the Papp at 2 h, 3 µM in data set [1] was under 1.5 ×10⁻⁶ cm/s. This compound also gave an EC50 in data set [2] of 1110 nM.

In the case of `CC(C)Nc1cc(-n2ncc3cc(C#N)cnc32)ncc1-c1cn(CC2CCC2)nn1` [Example 117, 1-(5-(1-(cyclobutylmethyl)-1H-1,2,3-triazol-4-yl)-4-(isopropylamino)pyridin-2-yl)-1H-pyrazolo[3,4-b]pyridine-5-carbonitrile], on IRAK4, the IC50 turned out to be 4 nM. This compound also had a Papp at 2 h, 3 µM in data set [1] of 10.1 ×10⁻⁶ cm/s. Further, the EC50 in data set [2] is 1190 nM.

Take `CC(C)Nc1cc(-n2ncc3cc(C#N)cnc32)ncc1-c1cn(CCc2cccnc2)nn1` [Example 119, 1-(4-(isopropylamino)-5-(1-(2-(pyridin-3-yl)ethyl)-1H-1,2,3-triazol-4-yl)pyridin-2-yl)-1H-pyrazolo[3,4-b]pyridine-5-carbonitrile]: the IC50 at IRAK4 came to 2 nM. The same compound displayed a Papp at 2 h, 3 µM in data set [1] of 5 ×10⁻⁶ cm/s. In data set [2], this compound registered an EC50 of 430 nM.

As to `CC(C)Nc1cc(-n2ncc3cc(C#N)cnc32)ncc1-c1cn(CCc2ccncc2)nn1` [Example 120, 1-(4-(isopropylamino)-5-(1-(2-(pyridin-4-yl)ethyl)-1H-1,2,3-triazol-4-yl)pyridin-2-yl)-1H-pyrazolo[3,4-b]pyridine-5-carbonitrile], the IC50 at IRAK4 was determined as 1 nM. The Papp at 2 h, 3 µM in data set [1] came out at 7.4 ×10⁻⁶ cm/s. In data set [2], the midpoint of the response, the EC50, lay at 200 nM.

With `CCOCCn1cc(-c2cnc(-n3ncc4cc(C#N)cnc43)cc2NC(C)C)nn1` [Example 122, 1-(5-(1-(2-ethoxyethyl)-1H-1,2,3-triazol-4-yl)-4-(isopropylamino)pyridin-2-yl)-1H-pyrazolo[3,4-b]pyridine-5-carbonitrile], the IC50 on IRAK4 is 6 nM. This compound registered an apparent permeability (Papp) at 2 h, 3 µM in data set [1] of 32.2 ×10⁻⁶ cm/s. In data set [2], the half-maximal effective concentration (EC50) is 590 nM.

In the case of `CC(C)Nc1cc(-n2ncc3cc(C#N)cnc32)ncc1-c1cn(CC2CCO2)nn1` (stereo not drawn) [Example 123, 1-(4-(isopropylamino)-5-(1-(oxetan-2-ylmethyl)-1H-1,2,3-triazol-4-yl)pyridin-2-yl)-1H-pyrazolo[3,4-b]pyridine-5-carbonitrile], the 50% inhibitory concentration (IC50) at IRAK4 came to 5 nM. For the same compound, the Papp at 2 h, 3 µM in data set [1] worked out at 24.4 ×10⁻⁶ cm/s. The midpoint of the response in data set [2], the EC50, lay at 240 nM.

On to `CC(C)Nc1cc(-n2ncc3cc(C#N)cnc32)ncc1-c1cn(CCCCO)nn1` [Example 124, 1-(5-(1-(4-hydroxybutyl)-1H-1,2,3-triazol-4-yl)-4-(isopropylamino)pyridin-2-yl)-1H-pyrazolo[3,4-b]pyridine-5-carbonitrile], for which the IC50 on IRAK4 worked out at 2 nM. The compound further yielded a Papp at 2 h, 3 µM in data set [1] of 2.9 ×10⁻⁶ cm/s. The EC50 in data set [2] amounted to 290 nM.

Take `CC(C)Nc1cc(-n2ncc3cc(C#N)cnc32)ncc1-c1cn(CCC(C)(C)O)nn1` [Example 128, 1-(5-(1-(3-hydroxy-3-methylbutyl)-1H-1,2,3-triazol-4-yl)-4-(isopropylamino)pyridin-2-yl)-1H-pyrazolo[3,4-b]pyridine-5-carbonitrile]: the IC50 at IRAK4 is 1 nM. In data set [1], this compound showed a Papp at 2 h, 3 µM of 5 ×10⁻⁶ cm/s. The same compound returned an EC50 in data set [2] of 340 nM.

As to `[2H]C([2H])([2H])C(=O)N1CC(n2cc(-c3cnc(-n4ncc5cc(C#N)cnc54)cc3NC(C)C)nn2)C1` [Example 140, 1-(5-(1-(1-trideuteroacetylazetidin-3-yl)-1H-1,2,3-triazol-4-yl)-4-(isopropylamino)pyridin-2-yl)-1H-pyrazolo[3,4-b]pyridine-5-carbonitrile], the IC50 at IRAK4 is 3 nM. Besides, the Papp at 2 h, 3 µM in data set [1] was under 1.5 ×10⁻⁶ cm/s. Besides, the EC50 in data set [2] was 360 nM.

On to `CC(C)Nc1cc(-n2ncc3cc(C#N)cnc32)ncc1-c1cn(C2CN(C(C)C)C2)nn1` [Example 150, 1-(4-(isopropylamino)-5-(1-(1-isopropylazetidin-3-yl)-1H-1,2,3-triazol-4-yl)pyridin-2-yl)-1H-pyrazolo[3,4-b]pyridine-5-carbonitrile], for which the IC50 at IRAK4 came out at 2 nM. Further, in data set [1], the Papp at 2 h, 3 µM came to 9.1 ×10⁻⁶ cm/s. Also, the EC50 in data set [2] came out at 450 nM.
